Several values for one entry are separate records, joined by “and”; a condition that tells them apart may be missing. Identical values can stand only once. Numbers after ± are expanded uncertainties.
Key:
[1] = xn = mol fraction of the nth substance listed; details: 101 kPa, Liquid; for speed of sound: Sing-around technique in a fixed-path interferometer; for mass density: Vibrating tube method
[2] = 101 kPa, Liquid; for speed of sound: Sing-around technique in a fixed-path interferometer; for mass density: Vibrating tube method

CCC(O)CO (stereo not drawn) [1,2-butanediol] + OCCc1ccccc1
[1], x2 = 0
Details	mass density [kg/m3]	speed of sound [m/s]
298.15 K	998.509 ± 0.23	1452.6 ± 1.3
303.15 K	994.719 ± 0.23	1437.7 ± 1.3
308.15 K	990.971 ± 0.23	1423.6 ± 1.3
313.15 K	987.113 ± 0.23	1408.5 ± 1.3
318.15 K	983.257 ± 0.23	1394 ± 1.2
323.15 K	979.371 ± 0.23	1379.6 ± 1.2

OCc1ccccc1 [benzenemethanol]
[2]
Details	mass density [kg/m3]	speed of sound [m/s]
298.15 K	1041.22 ± 0.26	1525.2 ± 1.3
303.15 K	1037.35 ± 0.26	1509.3 ± 1.3
308.15 K	1033.47 ± 0.26	1493.6 ± 1.3
313.15 K	1029.58 ± 0.26	1478 ± 1.3
318.15 K	1025.67 ± 0.25	1462.6 ± 1.3
323.15 K	1021.75 ± 0.25	1447.3 ± 1.3

CC(O)CCO (stereo not drawn) [1,3-butanediol]
[2]
Details	mass density [kg/m3]	speed of sound [m/s]
298.15 K	1001.82 ± 0.84	1527.8 ± 2.1
303.15 K	998.418 ± 0.84	1514.1 ± 2.1
308.15 K	994.987 ± 0.83	1500.2 ± 2.1
313.15 K	991.528 ± 0.83	1486.3 ± 2.1
318.15 K	988.035 ± 0.82	1472.3 ± 2.1
323.15 K	984.506 ± 0.82	1458.3 ± 2.1

CCC(O)CO (stereo not drawn) [1,2-butanediol] + CC(O)CCO
[1], x1 = 1
Details	mass density [kg/m3]	speed of sound [m/s]
298.15 K	998.509 ± 0.23	1452.6 ± 1.3
303.15 K	994.759 ± 0.23	1438.2 ± 1.3
308.15 K	990.971 ± 0.23	1423.6 ± 1.3
313.15 K	987.152 ± 0.23	1409.1 ± 1.3
318.15 K	983.297 ± 0.23	1394.5 ± 1.2
323.15 K	979.406 ± 0.23	1379.9 ± 1.2

CCC(C)O (stereo not drawn) [butan-2-ol] + CCC(O)CO
[1], x2 = 0
Details	mass density [kg/m3]	speed of sound [m/s]
298.15 K	803.103 ± 0.24	1212.7 ± 1.2
303.15 K	798.891 ± 0.24	1194.5 ± 1.2
308.15 K	794.588 ± 0.24	1176.2 ± 1.2
313.15 K	790.191 ± 0.24	1157.9 ± 1.2
318.15 K	785.692 ± 0.24	1139.5 ± 1.2
323.15 K	781.09 ± 0.24	1121 ± 1.2

OCCc1ccccc1 [2-phenylethanol]
[2]
Details	mass density [kg/m3]	speed of sound [m/s]
298.15 K	1016.14 ± 0.24	1526.1 ± 1.3
303.15 K	1012.39 ± 0.24	1510.5 ± 1.3
308.15 K	1008.61 ± 0.24	1494.7 ± 1.3
313.15 K	1004.75 ± 0.23	1479.2 ± 1.3
318.15 K	1000.93 ± 0.23	1463.2 ± 1.3
323.15 K	997.075 ± 0.23	1447.7 ± 1.3

OCc1ccccc1 [benzenemethanol] + CCC(O)CO
[1], x1 = 1
Details	mass density [kg/m3]	speed of sound [m/s]
298.15 K	1041.22 ± 0.26	1525.2 ± 1.3
303.15 K	1037.35 ± 0.26	1509.3 ± 1.3
308.15 K	1033.47 ± 0.26	1493.6 ± 1.3
313.15 K	1029.58 ± 0.26	1478 ± 1.3
318.15 K	1025.67 ± 0.25	1462.6 ± 1.3
323.15 K	1021.75 ± 0.25	1447.3 ± 1.3

CCC(C)O (stereo not drawn) [butan-2-ol]
[2]
Details	mass density [kg/m3]	speed of sound [m/s]
298.15 K	803.103 ± 0.24	1212.7 ± 1.2
303.15 K	798.891 ± 0.24	1194.5 ± 1.2
308.15 K	794.588 ± 0.24	1176.2 ± 1.2
313.15 K	790.191 ± 0.24	1157.9 ± 1.2
318.15 K	785.692 ± 0.24	1139.5 ± 1.2
323.15 K	781.09 ± 0.24	1121 ± 1.2

CCC(O)CO (stereo not drawn) [1,2-butanediol]
[2]
Details	mass density	speed of sound
298.15 K	998.509 ± 0.23 kg/m3 and 998.492 ± 0.23 kg/m3	1452.6 ± 1.3 m/s
303.15 K	994.744 ± 0.23 kg/m3 and 994.719 ± 0.23 kg/m3 and 994.759 ± 0.23 kg/m3	1438.2 ± 1.3 m/s and 1437.7 ± 1.3 m/s
308.15 K	990.956 ± 0.23 kg/m3 and 990.971 ± 0.23 kg/m3	1423.6 ± 1.3 m/s
313.15 K	987.136 ± 0.23 kg/m3 and 987.113 ± 0.23 kg/m3 and 987.152 ± 0.23 kg/m3	1409.2 ± 1.3 m/s and 1408.5 ± 1.3 m/s and 1409.1 ± 1.3 m/s
318.15 K	983.284 ± 0.23 kg/m3 and 983.257 ± 0.23 kg/m3 and 983.297 ± 0.23 kg/m3	1394.6 ± 1.2 m/s and 1394 ± 1.2 m/s and 1394.5 ± 1.2 m/s
323.15 K	979.394 ± 0.23 kg/m3 and 979.371 ± 0.23 kg/m3 and 979.406 ± 0.23 kg/m3	1380 ± 1.2 m/s and 1379.6 ± 1.2 m/s and 1379.9 ± 1.2 m/s
